Measurements: patent US7071215B2 (Pharmacia & Upjohn Company LLC, priority 2002, dated 2006)

Experiment: binding assay as described in U.S. Pat. No. 5,859,188 (Geary, et al., 1999): displacement of a radiolabelled ligand
Details: percent displacement of a radiolabelled ligand at 25 micromolar
Experimental: Selected compounds were evaluated for their anti-parasitic activity in a binding assay as described in U.S. Pat. No. 5,859,188 (Geary, et al., 1999). Results of the evaluations are given in Table 2 wherein “% Inhibition” means percent displacement of a radiolabelled ligand at 25 micromolar as described.

SMILES | % Inhibition
O=C(CN1CCCCC1)Nc1sc2c(c1C(=O)c1ccc(Cl)cc1)CCOC2 [Compound 1, N-[3-(4-chlorobenzoyl)-4,7-dihydro-5H-thieno[2,3-c]pyran-2-yl]-2-piperidin-1-ylacetamide] | 93–99%
O=C(CN1CCCCC1)Nc1sc2c(c1C(O)c1ccc(Cl)cc1)CCOC2 (stereo not shown) [Compound 2, N-{3-[(4-chlorophenyl)(hydroxy)methyl]-4,7-dihydro-5H-thieno[2,3-c]pyran-2-yl}-2-piperidin-1-ylacetamide] | 85–95%
O=C(CN1CCCC(O)C1)Nc1sc2c(c1C(=O)c1ccc(Cl)cc1)CCOC2 (stereo not shown) [Compound 3, N-[3-(4-chlorobenzoyl)-4,7-dihydro-5H-thieno[2,3-c]pyran-2-yl]-2-(3-hydroxypiperidin-1-yl)acetamide] | 96–97%
O=C(CN1CCCC(O)C1)Nc1sc2c(c1C(O)c1ccc(Cl)cc1)CCOC2 (stereo not shown) [Compound 4, N-{3-[(4-chlorophenyl)(hydroxy)methyl]-4,7-dihydro-5H-thieno[2,3-c]pyran-2-yl}-2-(3-hydroxypiperidin-1-yl)acetamide] | 72–84%
O=C(CN1CCCC(O)C1)Nc1sc2c(c1C(=O)c1ccco1)CCSC2 (stereo not shown) [Compound 10] | 21–38%
O=C(CN1CCCC(O)C1)Nc1sc2c(c1C(O)c1ccc(Cl)cc1)CCSC2 (stereo not shown) [Compound 20] | 86–88%
O=C(CN1CCCCCC1)Nc1sc2c(c1C(O)c1ccc(Cl)cc1)CCSC2 (stereo not shown) [Compound 24] | 11–58%
Cc1ccc(C(=O)c2c(NC(=O)CN3CCCC(O)C3)sc3c2CCSC3)cc1 (stereo not shown) [Compound 28] | 11–79%
O=C(CN1CCCC(O)C1)Nc1sc2c(c1C(=O)c1cccc(C(F)(F)F)c1)CCSC2 (stereo not shown) [Compound 33] | 92–94%
O=C(CN1CCCCC1)Nc1sc2c(c1C(=O)c1cccs1)CCSC2 [Compound 37] | 0–66%
Cc1ccc(C(O)c2c(NC(=O)CN3CCCC(O)C3)sc3c2CCSC3)cc1 (stereo not shown) [Compound 40] | 100%
O=C(CN1CCCC(O)C1)Nc1sc2c(c1C(O)c1cccs1)CCSC2 (stereo not shown) [Compound 49] | 46–55%
O=C(CN1CCCC(O)C1)Nc1sc2c(c1C(=O)c1ccc(F)cc1)CCSC2 (stereo not shown) [Compound 53] | 19–20%
O=C(CN1CCCC(O)C1)Nc1sc2c(c1C(O)c1ccc(F)cc1)CCSC2 (stereo not shown) [Compound 54] | 93–97%
O=C(CN1CCCC(O)C1)Nc1sc2c(c1C(=O)c1ccc(F)c(F)c1)CCSC2 (stereo not shown) [Compound 55] | 100%
O=C(CN1CCCCC1)Nc1sc2c(c1C(=O)c1cccc(F)c1)CCSC2 [Compound 56] | 99–100%
